From patent publication US11173162B2, “Bicyclic heterocycles as FGFR4 inhibitors” (Incyte Corporation, priority 2015, dated 2021)

tested on: FGFR3 enzyme; assay: FGFR Enzymatic Assay (FRET peptide phosphorylation), FGFR3; assay type: biochemical; conditions: IC50 ratio showing FGFR3 selectivity; Table 2A, pre-incubated for 4 hours
Method: The inhibitor potency of the exemplified compounds was measured in an enzyme assay that measures peptide phosphorylation using FRET measurements to detect product formation. Inhibitors were serially diluted in DMSO and a volume of 0.5 μL was transferred to the wells of a 384-well plate.
GraphPad prism3 was used to analyze the data.

Q: Which results are given for `COc1cc(OC)c(F)c(N2Cc3cnc(-c4cn(C)nc4C)cc3N(Cc3ccc(F)cc3)C2=O)c1F` [Example 34, 3-(2,6-difluoro-3,5-dimethoxyphenyl)-7-(1,3-dimethyl-1H-pyrazol-4-yl)-1-(4-fluorobenzyl)-3,4-dihydropyrido[4,3-d]pyrimidin-2(1H)-one]?
A: FGFR1/FGFR3: >5; FGFR4/FGFR3: >10

Q: For `COc1cc(OC)c(F)c(N2Cc3cnc(-c4cn(C)nc4C)cc3N(Cc3csc(C)n3)C2=O)c1F` [Example 95, 3-(2,6-difluoro-3,5-dimethoxyphenyl)-7-(1,3-dimethyl-1H-pyrazol-4-yl)-1-((2-methylthiazol-4-yl)methyl)-3,4-dihydropyrido[4,3-d]pyrimidin-2(1H)-one], which FGFR1/FGFR3 is on record?
A: Its FGFR1/FGFR3 is greater than 5.

Q: And the FGFR4/FGFR3?
A: The FGFR4/FGFR3 was greater than 10.

Q: Which FGFR1/FGFR3 does the source give for `COc1cc(OC)c(F)c(N2Cc3cnc(-c4ccc(C5(C#N)CCC5)nc4)cc3N(c3ccncn3)C2=O)c1F` [Example 135, 1-(5-(3-(2,6-difluoro-3,5-dimethoxyphenyl)-2-oxo-1-(pyrimidin-4-yl)-1,2,3,4-tetrahydropyrido[4,3-d]pyrimidin-7-yl)pyridin-2-yl)cyclobutanecarbonitrile] here?
A: The FGFR1/FGFR3 was greater than 5.

Q: What about the FGFR4/FGFR3 of the same compound?
A: Its FGFR4/FGFR3 is greater than 10.

Q: `COc1cc(OC)c(F)c(N2Cc3cnc(-c4cn(C5CCN(C)C5)nc4C)cc3C3(CC3)C2=O)c1F` (stereo not shown) [Example 163, 2′-(2,6-difluoro-3,5-dimethoxyphenyl)-6′-(3-methyl-1-(1-methylpyrrolidin-3-yl)-1H-pyrazol-4-yl)-1′H-spiro[cyclopropane-1,4′-[2,7]naphthyridin]-3′(2′H)-one] was tested. Which FGFR1/FGFR3 did it give?
A: Its FGFR1/FGFR3 is greater than 3.

Q: What about the FGFR4/FGFR3 of the same compound?
A: The FGFR4/FGFR3 was greater than 3.

Q: For `CCN1C(=O)N(c2c(F)c(OC)cc(OC)c2F)Cc2cnc(-c3ccc(N4CCOCC4)nc3)cc21` [Example 182, 3-(2,6-difluoro-3,5-dimethoxyphenyl)-1-ethyl-7-(6-morpholinopyridin-3-yl)-3,4-dihydropyrido[4,3-d]pyrimidin-2(1H)-one], which FGFR1/FGFR3 is on record?
A: Its FGFR1/FGFR3 is greater than 5.

Q: And the FGFR4/FGFR3?
A: Its FGFR4/FGFR3 is greater than 5.

Q: Which results are given for `COc1cc(OC)c(F)c(N2Cc3cnc(-c4cn(C)nc4C)cc3N(C3CCOC3)C2=O)c1F` (stereo not shown) [Example 33, 3-(2,6-difluoro-3,5-dimethoxyphenyl)-7-(1,3-dimethyl-1H-pyrazol-4-yl)-1-(tetrahydrofuran-3-yl)-3,4-dihydropyrido[4,3-d]pyrimidin-2(1H)-one]?
A: FGFR1/FGFR3: >5; FGFR4/FGFR3: >5

Q: For `COc1cc(OC)c(F)c(N2Cc3cnc(-c4cn(C)nc4C)cc3N(Cc3ccccn3)C2=O)c1F` [Example 94, 3-(2,6-difluoro-3,5-dimethoxyphenyl)-7-(1,3-dimethyl-1H-pyrazol-4-yl)-1-(pyridin-2-ylmethyl)-3,4-dihydropyrido[4,3-d]pyrimidin-2(1H)-one], which FGFR1/FGFR3 is on record?
A: The FGFR1/FGFR3 was greater than 5.

Q: What about the FGFR4/FGFR3 of the same compound?
A: The FGFR4/FGFR3 was greater than 10.

Q: For `COc1cc(OC)c(F)c(N2Cc3cnc(-c4cn(C)nc4C)cc3N(CC3CC3)C2=O)c1F` [Example 29, 1-(cyclopropylmethyl)-3-(2,6-difluoro-3,5-dimethoxyphenyl)-7-(1,3-dimethyl-1H-pyrazol-4-yl)-3,4-dihydropyrido[4,3-d]pyrimidin-2(1H)-one], which FGFR1/FGFR3 is on record?
A: The FGFR1/FGFR3 was greater than 1.

Q: And the FGFR4/FGFR3?
A: The FGFR4/FGFR3 was greater than 5.

Q: With `COc1cc(OC)c(F)c(N2Cc3cnc(-c4csc(N(C)C)n4)cc3C3(CC3)C2=O)c1F` [Example 160, 2′-(2,6-difluoro-3,5-dimethoxyphenyl)-6′-(2-(dimethylamino)thiazol-4-yl)-1′H-spiro[cyclopropane-1,4′-[2,7]naphthyridin]-3′(2′H)-one] as the compound, how does the FGFR1/FGFR3 read?
A: The FGFR1/FGFR3 was greater than 5.

Q: What about the FGFR4/FGFR3 of the same compound?
A: Its FGFR4/FGFR3 is greater than 5.

Q: With `CNS(=O)(=O)c1cccc(N2C(=O)N(c3c(F)c(OC)cc(OC)c3F)Cc3cnc(-c4cn(C)nc4C)cc32)c1` [Example 111, 3-(3-(2,6-difluoro-3,5-dimethoxyphenyl)-7-(1,3-dimethyl-1H-pyrazol-4-yl)-2-oxo-3,4-dihydropyrido[4,3-d]pyrimidin-1(2H)-yl)-N-methylbenzenesulfonamide] as the compound, how does the FGFR1/FGFR3 read?
A: The FGFR1/FGFR3 was greater than 3.

Q: What about the FGFR4/FGFR3 of the same compound?
A: The FGFR4/FGFR3 was greater than 5.

Q: For `CNC(=O)c1ccc(-c2cc3c(cn2)CN(c2c(F)c(OC)cc(OC)c2F)C(=O)C32CC2)cc1` [Example 19, 4-(2′-(2,6-difluoro-3,5-dimethoxyphenyl)-3′-oxo-2′,3′-dihydro-1′H-spiro[cyclopropane-1,4′-[2,7]naphthyridine]-6′-yl)-N-methylbenzamide], which FGFR1/FGFR3 is on record?
A: Its FGFR1/FGFR3 is greater than 5.

Q: With `CCN1C(=O)N(c2c(F)c(OC)cc(OC)c2F)Cc2cnc(-c3ccc(C4(C#N)CCC4)cc3)cc21` [Example 181, 1-(4-(3-(2,6-difluoro-3,5-dimethoxyphenyl)-1-ethyl-2-oxo-1,2,3,4-tetrahydropyrido[4,3-d]pyrimidin-7-yl)phenyl)cyclobutanecarbonitrile] as the compound, how does the FGFR1/FGFR3 read?
A: The FGFR1/FGFR3 was greater than 5.

Q: What about the FGFR4/FGFR3 of the same compound?
A: The FGFR4/FGFR3 was greater than 10.

Q: Which results are given for `COc1cc(OC)c(F)c(N2Cc3cnc(-c4cnn(C5(C#N)CCC5)c4C)cc3C3(CC3)C2=O)c1F` [Example 149, 1-(4-(2′-(2,6-difluoro-3,5-dimethoxyphenyl)-3′-oxo-2′,3′-dihydro-1′H-spiro[cyclopropane-1,4′-[2,7]naphthyridine]-6′-yl)-5-methyl-1H-pyrazol-1-yl)cyclobutanecarbonitrile]?
A: FGFR1/FGFR3: >5; FGFR4/FGFR3: >3

Q: Which results are given for `CCCNC(=O)c1ccc(-c2cc3c(cn2)CN(c2c(F)c(OC)cc(OC)c2F)C(=O)N3CC)cn1` [Example 179, 5-(3-(2,6-difluoro-3,5-dimethoxyphenyl)-1-ethyl-2-oxo-1,2,3,4-tetrahydropyrido[4,3-d]pyrimidin-7-yl)-N-propylpicolinamide]?
A: FGFR1/FGFR3: >5; FGFR4/FGFR3: >10

Q: What does the source list for `COc1cc(OC)c(F)c(N2Cc3cnc(-c4cn(C)nc4C)cc3N(Cc3cc(C)on3)C2=O)c1F` [Example 31, 3-(2,6-difluoro-3,5-dimethoxyphenyl)-7-(1,3-dimethyl-1H-pyrazol-4-yl)-1-((5-methylisoxazol-3-yl)methyl)-3,4-dihydropyrido[4,3-d]pyrimidin-2(1H)-one]?
A: FGFR1/FGFR3: >5; FGFR4/FGFR3: >10

Q: `COc1ccc(CN2C(=O)N(c3c(F)c(OC)cc(OC)c3F)Cc3cnc(-c4cn(C)nc4C)cc32)cn1` [Example 59, 3-(2,6-difluoro-3,5-dimethoxyphenyl)-7-(1,3-dimethyl-1H-pyrazol-4-yl)-1-((6-methoxypyridin-3-yl)methyl)-3,4-dihydropyrido[4,3-d]pyrimidin-2(1H)-one] was tested. Which FGFR1/FGFR3 did it give?
A: The FGFR1/FGFR3 was greater than 10.

Q: And the FGFR4/FGFR3?
A: The FGFR4/FGFR3 was greater than 10.

Q: How did the FGFR1/FGFR3 turn out when `CCN1C(=O)N(c2c(F)c(OC)cc(OC)c2F)Cc2cnc(-c3ccc(CC#N)cc3)cc21` [Example 180, 2-(4-(3-(2,6-difluoro-3,5-dimethoxyphenyl)-1-ethyl-2-oxo-1,2,3,4-tetrahydropyrido[4,3-d]pyrimidin-7-yl)phenyl)acetonitrile] was run?
A: The FGFR1/FGFR3 was greater than 5.

Q: What about the FGFR4/FGFR3 of the same compound?
A: The FGFR4/FGFR3 was greater than 5.

Q: For `COc1cc(OC)c(F)c(N2Cc3cnc(-c4cn(C)nc4C)cc3N(Cc3cnccn3)C2=O)c1F` [Example 85, 3-(2,6-difluoro-3,5-dimethoxyphenyl)-7-(1,3-dimethyl-1H-pyrazol-4-yl)-1-(pyrazin-2-ylmethyl)-3,4-dihydropyrido[4,3-d]pyrimidin-2(1H)-one], which FGFR1/FGFR3 is on record?
A: Its FGFR1/FGFR3 is greater than 5.

Q: What about the FGFR4/FGFR3 of the same compound?
A: Its FGFR4/FGFR3 is greater than 10.

Q: With `COc1cc(OC)c(F)c(N2Cc3cnc(-c4ccccc4)cc3C3(CC3)C2=O)c1F` [Example 17, 2′-(2,6-difluoro-3,5-dimethoxyphenyl)-6′-phenyl-1′H-spiro[cyclopropane-1,4′-[2,7]naphthyridin]-3′(2′H)-one] as the compound, how does the FGFR1/FGFR3 read?
A: Its FGFR1/FGFR3 is greater than 10.

Q: `CCN1C(=O)N(c2c(F)c(OC)cc(OC)c2F)Cc2cnc(-c3cccnc3)cc21` [Example 23, 3-(2,6-difluoro-3,5-dimethoxyphenyl)-1-ethyl-7-(pyridin-3-yl)-3,4-dihydropyrido[4,3-d]pyrimidin-2(1H)-one] was tested. Which FGFR1/FGFR3 did it give?
A: The FGFR1/FGFR3 was greater than 5.

Q: With `COc1cc(N2C(=O)N(c3c(F)c(OC)cc(OC)c3F)Cc3cnc(-c4cn(C)nc4C)cc32)ccc1C#N` [Example 81, 4-(3-(2,6-difluoro-3,5-dimethoxyphenyl)-7-(1,3-dimethyl-1H-pyrazol-4-yl)-2-oxo-3,4-dihydropyrido[4,3-d]pyrimidin-1(2H)-yl)-2-methoxybenzonitrile] as the compound, how does the FGFR1/FGFR3 read?
A: Its FGFR1/FGFR3 is greater than 5.

Q: And the FGFR4/FGFR3?
A: Its FGFR4/FGFR3 is greater than 10.

Q: Which FGFR1/FGFR3 does the source give for `COc1cc(OC)c(F)c(N2Cc3cnc(-c4cn(C)nc4C)cc3N(c3ccccc3F)C2=O)c1F` [Example 110, 3-(2,6-difluoro-3,5-dimethoxyphenyl)-7-(1,3-dimethyl-1H-pyrazol-4-yl)-1-(2-fluorophenyl)-3,4-dihydropyrido[4,3-d]pyrimidin-2(1H)-one] here?
A: Its FGFR1/FGFR3 is greater than 3.

Q: What about the FGFR4/FGFR3 of the same compound?
A: The FGFR4/FGFR3 was greater than 5.

Q: Which results are given for `COc1cc(OC)c(F)c(N2Cc3cnc(-c4cnn(CC5CN(C(C)=O)C5)c4)cc3C3(CC3)C2=O)c1F` [Example 167, 6′-(1-((1-acetylazetidin-3-yl)methyl)-1H-pyrazol-4-yl)-2′-(2,6-difluoro-3,5-dimethoxyphenyl)-1′H-spiro[cyclopropane-1,4′-[2,7]naphthyridin]-3′(2′H)-one]?
A: FGFR1/FGFR3: >3; FGFR4/FGFR3: >3

Q: With `COc1cc(OC)c(F)c(N2Cc3cnc(-c4cn(C)nc4C)cc3N(Cc3cc(C)no3)C2=O)c1F` [Example 35, 3-(2,6-difluoro-3,5-dimethoxyphenyl)-7-(1,3-dimethyl-1H-pyrazol-4-yl)-1-((3-methylisoxazol-5-yl)methyl)-3,4-dihydropyrido[4,3-d]pyrimidin-2(1H)-one] as the compound, how does the FGFR1/FGFR3 read?
A: Its FGFR1/FGFR3 is greater than 5.

Q: And the FGFR4/FGFR3?
A: The FGFR4/FGFR3 was greater than 10.

Q: Which FGFR1/FGFR3 does the source give for `COc1cc(OC)c(F)c(N2Cc3cnc(-c4cn(C5CCN(CC#N)C5)nc4C)cc3C3(CC3)C2=O)c1F` (stereo not shown) [Example 154, 2-(3-(4-(2′-(2,6-difluoro-3,5-dimethoxyphenyl)-3′-oxo-2′,3′-dihydro-1′H-spiro[cyclopropane-1,4′-[2,7]naphthyridine]-6′-yl)-3-methyl-1H-pyrazol-1-yl)pyrrolidin-1-yl)acetonitrile] here?
A: Its FGFR1/FGFR3 is greater than 5.

Q: What about the FGFR4/FGFR3 of the same compound?
A: Its FGFR4/FGFR3 is greater than 3.

Q: Which results are given for `COc1cc(OC)c(F)c(N2Cc3cnc(-c4cn(C)nc4C)cc3N(c3ccn(C)n3)C2=O)c1F` [Example 100, 3-(2,6-difluoro-3,5-dimethoxyphenyl)-7-(1,3-dimethyl-1H-pyrazol-4-yl)-1-(1-methyl-1H-pyrazol-3-yl)-3,4-dihydropyrido[4,3-d]pyrimidin-2(1H)-one]?
A: FGFR1/FGFR3: >5; FGFR4/FGFR3: >5
